In patent US9581577B2, “Miniaturized flow-through cell” (NATIONAL UNIVERSITY OF SINGAPORE, priority 2012, dated 2017):
Each block holds one compound with its values, some of them ahead of it.

Key:
[1] = cited from earlier work
[2] = Permeation across rat abdominal skin in horizontal diffusion cell (HDC); format: in vitro ADME
Procedure: To evaluate the performance characteristics of the MFtC 5, permeation of model compounds (rhodamine B and mangostin) using a horizontal diffusion cell (TK-6H1, Shanghai Kai Kai Technology, China) and a MFtC 5 was compared. Rat abdominal skins were obtained from the National University of Singapore Animal Centre and kept at −80° C. until use. Prior to the permeation studies, the skins were thawed and hair was completely removed with an electrical shaver and hair remover cream (Veet). Subcutaneous fat and connective tissues were also lightly trimmed off. All animal experiments were approved by Institutional Animal Care and Use Committee, National University of Singapore. A 2.0 cm×2.0 cm piece of rat abdominal skin was mounted between the donor and receptor compartments of the horizontal diffusion cell, with the stratum corneum side facing the donor compartment. The effective diffusion area was 1.13 cm^2. Each donor cell contained 4.5 ml of each model compound in propylene glycol (PG) and the receptor cell contained the same volume of PBS. Mangostin was used at a concentration of 2.3 mg/ml and rhodamine B at concentrations of 1 mg/ml and 5 mg/ml. Both compartments were thermostated at 37° C. by means of a surrounding temperature controlled water jacket. In order to minimize evaporation, all cell openings were occluded with parafilm. The fluids in both compartments were maintained in a stirred state by a Teflon coated magnetic stirrer at a speed of 250±1.25 rpm. Samples (1 ml) were withdrawn from the receptor compartment for analysis at specific time intervals. Upon each sample withdrawal, the receptor compartment was immediately replaced by an equal volume of fresh solution. The experiments were performed in triplicates or more. Skin samples from the same rat were used for comparisons between the horizontal diffusion cell and a MFtC 5 to minimise inter-animal variability. All experiments were performed at least three times. The samples were collected at the same time intervals and stored at 4° C. until analysis. During analysis, samples were first centrifuged at 13,000 rpm (Sorvall Biofuge Pico, UK) for 5 min. The supernatant was obtained and analyzed according to their respective assay methods as reported below. Concentration of rhodamine B was determined by fluorescence spectroscopy with a microplate reader (Tecan, Switzerland) at an excitation wavelength (λex)=554 nm and an emission wavelength (λem)=586 nm at ambient temperature. All samples were protected from light to prevent possible light quenching of fluorescence during the assay. Mangostin concentration was determined with a reversed phase HPLC (Hitachi, Japan) using a C18 column (5 μm, 4.6 mm×250 mm; ODS Hypersil, Thermo Scientific) maintained at ambient temperature. The mobile phase comprised of methanol and ultrapure water (90:10, v/v) delivered at a flow rate of 1 ml/min. The UV detector (L-2400, Hitachi, Japan) was operated at a λ=320 nm. Under these conditions, the mangostin peak appeared at a retention time of 6.8 min.

[3] = Permeation across rat abdominal skin in miniaturized flow-through cell (MFtC), validation; format: in vitro ADME
Procedure: To evaluate the performance characteristics of the MFtC 5, permeation of model compounds (rhodamine B and mangostin) using a horizontal diffusion cell (TK-6H1, Shanghai Kai Kai Technology, China) and a MFtC 5 was compared. Rat abdominal skins were obtained from the National University of Singapore Animal Centre and kept at −80° C. until use. Prior to the permeation studies, the skins were thawed and hair was completely removed with an electrical shaver and hair remover cream (Veet). Subcutaneous fat and connective tissues were also lightly trimmed off. All animal experiments were approved by Institutional Animal Care and Use Committee, National University of Singapore. Similar conditions were used in the MFtC 5 or MFtC 5 setup. A 1.0 cm×1.0 cm piece of rat abdominal skin was mounted between the donor compartment 220 and the receptor compartment 120 with the stratum corneum side facing the donor compartment 220 of the MFtC 5. In some embodiments, the area and shape of the skin/membrane of the present disclosure can be modified as needed or per application requirements. A sealant or sealing substance or material such as high vacuum grease (Dow Corning, USA) was applied to the donor compartment 220 on the unexposed stratum corneum side, in contact with the receptor compartment 120, to minimize leakage from the donor compartment 220. Other sealants, sealing substances, or high vacuum grease for minimizing leakage from the donor compartment 220 can be selected as needed or per application requirements. […] On the other hand, leakage of the donor solution could be observed when no grease was applied. In an embodiment of the present disclosure, the effective diffusion area was 0.283 cm^2. In some embodiments, the effective diffusion area can be about 0.283 cm^2 to about 0.5 cm^2. In an embodiment of the present disclosure, 70 μl of the donor solution was added into the donor compartment 220. In some embodiments, the volume of the donor solution added to the donor compartment 220 can be about 70 μl to about 300 μl. In an embodiment of the present disclosure, the receptor fluid or receptor solution comprised degassed PBS solution. In some embodiments, the receptor solution of the present disclosure can comprise other solutions such as water, buffers, extracellular fluid, lung lining fluid, gastric fluid, and/or cerebrospinal fluid. In an embodiment of the present disclosure, the flow rate of receptor solution through each diffusion cell 50 can be controlled by an infusion pump system 60, wherein the flow rate can be about 0.20 ml/hr. In some embodiments, the flow rate of receptor solution through each diffusion cell 50 can be reduced or increased to a flow rate of about 0.828 μl/hr to about 1270 ml/hr as needed or per application requirements. An embodiment of a MFtC 5 of the present disclosure was placed in a temperature controlling system such as a water bath 80 maintained at 37° C. using a hot plate to control the temperature. In some embodiments, the temperature can be adjusted as needed or per application requirements. In order to minimize evaporation, the donor compartment 220 and sampling container(s) 70 such as a sampling microfuge tube(s) 70 were occluded with parafilm. The sampling container(s) 70 such as a sampling tube(s) 70 was collected at specific time intervals and replaced by a sampling container(s) 70 such as an empty sampling tube(s) 70 for subsequent collections. The experiments were performed in triplicates or more. In some embodiments, the method of collecting the sample can be modified as needed or per application requirements. Skin samples from the same rat were used for comparisons between the horizontal diffusion cell and a MFtC 5 to minimise inter-animal variability. All experiments were performed at least three times. The samples were collected at the same time intervals and stored at 4° C. until analysis. During analysis, samples were first centrifuged at 13,000 rpm (Sorvall Biofuge Pico, UK) for 5 min. […]

[4] = Flux through rat skin translated to human skin; format: in vitro ADME; conditions: translated from the rat skin flux of 6.52 μg/cm^2/hr; limonene as PE in PG
[5] = endoxifen in 60% (v/v) ethanol-phosphate buffer with 0.5% (w/v) oleic acid; cited from earlier work
[6] = Endoxifen permeation studies with MFtC, with or without permeation enhancers; format: in vitro ADME, rat; conditions: for Flux / Lag time: MFtC, rat abdominal skin, mean ± SD, N = 3
Procedure: A fluorescence assay for endoxifen was established whereby endoxifen was converted to highly fluorescent phenanthrene derivatives following exposure to ultraviolet (UV) irradiation. A UV transilluminator (Bio Rad, USA) at λ=302 nm and an intensity of 866 μW/cm^2 was used for the conversion of endoxifen to its phenanthrene derivatives. The fluorescence emitted from the phenanthrene derivatives of endoxifen after various durations of UV exposure was determined with a microplate reader at a λex=260 nm and a λem=380 nm. Fluorescence measurements from non-UV exposed samples served as a control. The optimum duration of UV irradiation was determined with a 10 μg/ml solution of endoxifen. For all subsequent experiments, this duration of UV irradiation was fixed at the optimal time. The validated MFtC 5 mounted with rat abdominal skin was employed to determine the permeation profile of endoxifen. Donor solutions comprised of endoxifen (2 mg/ml) in PG with and without permeation enhancers (PEs) namely limonene, myristyl lactate and oleic acid at 0.5% (w/v) were prepared. All solutions were sonicated for 3 min to ensure dissolution of endoxifen and PEs. Each donor compartment 220 was filled with 200 μl of donor solution. Endoxifen was allowed to permeate through the rat abdominal skin over 48 hr. The experiments were performed in triplicates. Samples of permeated solutions were collected at specific time intervals and stored at −20° C. until analysis. The flux at steady state (Jss) and lag time were obtained from the cumulative plots. The effect of the PEs on the flux was evaluated by calculating the enhancement index (EI). Independent sample t-test (IBM SPSS PASW Statistics 18) was used to compare the permeation parameters obtained from experiments involving horizontal diffusion cell and MFtC 5. For endoxifen permeation experiments, one-way analysis of variance (ANOVA) with Scheffe post hoc test was used for the comparison of the permeation parameters of endoxifen with or without the different PEs. For all tests, p<0.05 was considered significant.

[7] = ENX 2 mg/ml in PG alone (control)
[8] = ENX 2 mg/ml in PG with limonene 0.5% (w/v)
[9] = ENX 2 mg/ml in PG with myristyl lactate 0.5% (w/v)
[10] = ENX 2 mg/ml in PG with oleic acid 0.5% (w/v)
[11] = HDC, donor 1 mg/ml in propylene glycol, rat abdominal skin, mean ± SD
[12] = HDC, donor 5 mg/ml in propylene glycol, rat abdominal skin, mean ± SD
[13] = MFtC, donor 1 mg/ml in propylene glycol, rat abdominal skin, mean ± SD
[14] = MFtC, donor 5 mg/ml in propylene glycol, rat abdominal skin, mean ± SD

SMILES: CCCCCCCC/C=C\CCCCCCCC(=O)O [oleic acid]
log P [1]: 7.42

SMILES: COc1c(O)cc2oc3cc(O)c(CC=C(C)C)c(O)c3c(=O)c2c1CC=C(C)C [mangostin, α-mangostin]
Flux ([2]; rat, 48 h, 2.3 mg/ml): 7.06 ± 1.06 μg/cm^2/hr
Lag time ([2]; rat, 48 h, 2.3 mg/ml): 7.19 ± 0.47 h
Flux ([3]; rat, 48 h, 2.3 mg/ml): 8.34 ± 3.40 μg/cm^2/hr
Lag time ([3]; rat, 48 h, 2.3 mg/ml): 14.5 ± 2.71 h
log P [1]: 6.64

SMILES: CCCCCCCCCCCCCCOC(=O)C(C)O (stereo not shown) [myristyl lactate]
log P [1]: 6.08

Flux through human skin [4]: 2.17 μg/cm^2/hr
Flux [6, 7]: 0.65 ± 0.01 μg/cm^2/hr
Lag time [6, 7]: 1.03 ± 1.40 h
Flux [6, 8]: 6.52 μg/cm^2/hr
Lag time [6, 8]: 3.75 ± 2.37 h
Flux ([6]; ENX 2 mg/ml in PG with limonene 0.5% (w/v), listed as ENX): 6.52 ± 1.41 μg/cm^2/hr
Flux [6, 9]: 5.33 ± 0.13 μg/cm^2/hr
Lag time [6, 9]: 7.62 ± 2.18 h
Flux [6, 10]: 4.09±1.07 μg/cm^2/hr
Lag time [6, 10]: 7.58 ± 4.04 h
Flux ([6]; ENX 2 mg/ml in PG with oleic acid 0.5% (w/v), listed as ENX): 4.09 ± 1.07 μg/cm^2/hr
Enhancement index (EI) = Jss (with enhancer)/Jss (without enhancer) ([6]; ENX in PG with limonene 0.5% (w/v) versus PG alone): 9.99
Enhancement index (EI) = Jss (with enhancer)/Jss (without enhancer) ([6]; ENX in PG with myristyl lactate 0.5% (w/v) versus PG alone): 8.17
Enhancement index (EI) = Jss (with enhancer)/Jss (without enhancer) ([6]; ENX in PG with oleic acid 0.5% (w/v) versus PG alone): 6.26
SMILES: CC/C(=C(\c1ccc(O)cc1)c1ccc(OCCNC)cc1)c1ccccc1 [endoxifen]
log P [1]: 4.94
Highest flux reported (Jss) [5]: 0.22 μg/cm^2/hr

Flux [2, 11]: 0.04 ± 0.03 μg/cm^2/hr
Lag time [2, 11]: 17.7 ± 3.47 h
Flux [2, 12]: 0.07 ± 0.01 μg/cm^2/hr
Lag time [2, 12]: 11.4 ± 3.31 h
Flux [3, 13]: 0.05 ± 0.02 μg/cm^2/hr
Lag time [3, 13]: 22.1 ± 4.07 h
Flux [3, 14]: 0.05 ± 0.02 μg/cm^2/hr
Lag time [3, 14]: 8.35 ± 4.75 h
SMILES: CCN(CC)c1ccc2c(-c3ccccc3C(=O)O)c3ccc(=[N+](CC)CC)cc-3oc2c1.[Cl-] [rhodamine B]
log P [1]: 2.43

SMILES: CC(O)CO (stereo not shown) [propylene glycol]
log P [1]: −1.00

SMILES: C=C(C)[C@H]1CC=C(C)CC1 [limonene, (R)-(+)-limonene]
log P [1]: 4.83
